Test results taken from patent US20210113594A1, “TUMOR IMMUNOMODULATOR” (OSAKA UNIVERSITY, priority 2018, published 2021).

How the values were obtained:
[1] = test system: IFNγ-producing CD8+T cells; experiment: IFNγ production assay on cells from lung cancer tissue; type: cell-based, human; conditions: BiTE + test drug (DMC), n=3 patients
Protocol: The IFNγ production capacity of cells in all media that were collected in section 5 in accordance with the method described in section 1(4) above was measured using an IFNγ secretion assay kit (Miltenyi Biotec).
The medium collected in section 1(4) above was centrifuged at 400 g for 5 minutes to remove the supernatant. An IFNγ catch reagent diluted 100-fold in a 10% human serum-supplemented AIM medium was added at 100 μL/tube to the remaining PBMC pellet to suspend the PBMCs, followed by incubation at 4° C. for 10 minutes.
A 10% human serum-supplemented AIM medium heated to 37° C. was dispensed at 1 mL/tube into the tube subjected to the incubation. While stirring the tube, incubation was performed at 37° C. for 45 minutes. […]
(§1) According to the method described in section I.5 above, T cells in tumor tissue of a lung cancer patient were collected; and by using such cells, tumor-cytotoxic activity was measured to examine the effect of the tetracycline-based compound. Specifically, T cells in tumor tissue of a lung cancer patient were collected according to the method described in section I.5 above; and the presence ratio of IFNγ-producing CD8^+T cells was measured according to the method described in section I.6 above, thus examining the effect of the tetracycline-based compound.

[2] = test system: CT26WT cells; experiment: Dependence on CD8+T cells of the enhancement of the anti-PD-L1 antibody in vivo (Example 9); parameters: species or system BALB/c mice
Protocol: In the same manner as in Example 8, CT26WT cells were cultured, and subcutaneously inoculated to 6-week-old BALB/c mice (Day 0).
Before the administration of DMC or water and an anti-PD-L1 antibody, the anti-CD8 antibody (InVivo MAb anti-mouse CD8α, produced by BioXCell) was intraperitoneally administered at 400 μg/200 μL/mouse to the CD8 depletion group on Day 6. Control IgG was administered at 400 μg/200 μL/mouse to the other groups.
Next, administration of DMC was started on Day 7. The DMC was dissolved in saline, and then orally administered at 200 μL/mouse using an oral sonde. In the groups free of DMC, distilled water was orally administered at 200 μL/mouse. The DMC was administered once daily from Day 7 to Day 12.
Subsequently, on Day 10, an anti-PD-L1 antibody or control IgG was intraperitoneally administered at 200 μg/200 μL/mouse.
On Day 10 and Day 13, the tumor size was measured. The tumor volume was calculated in the same manner as in Example 8.

[3] = test system: U251 cell line; experiment: Tumor-cytotoxic activity of T cells in lung cancer tissue; type: cell-based, human; conditions: BiTE + test drug (DMC); n=5 patients
Protocol: Regarding the tumor-cytotoxic activity of T cells in lung cancer tissue, cells were collected from lung cancer tissue according to the following method. The tumor-cytotoxic activity was measured as the activity of the cell population.
The cancer tissue was transferred to a 6-cm dish and minced. The cancer tissue was then placed in a tissue stirring solution (tumor dissociation Kit (Miltenyi Biotec) was added to HBSS+2% FBS+10 mM HEPES), followed by stirring with a gentle MACS™ Dissociator (Miltenyi Biotec). Incubation was then performed by rotating the mixture in an incubator maintained at 37° C. for 30 minutes. […] The tumor-cytotoxic activity of the collected cells was measured in accordance with the same method as in section I.1(1) to (5) above. […]
as §1

[4] = test system: CMV-specific cytotoxic T cells; experiment: CMV-specific CTL induction (mixed CMV peptide/lymphocytes culture); type: cell-based, human; conditions: DMC 2.5 μM; 14 days after CMV peptide stimulation; PBMCs of one healthy person; p<0.05
Protocol: CMV peptides adjusted to 10 μg/mL in a 10% FBS-supplemented RPMI medium was added to PBMCs of healthy people with an HLA type of 24:02, followed by culture in a 96-well plate for 3 days. […] The medium containing PBMCs in each well was transferred into a 24-well plate for scale-up, followed by culture for another 3 days in a 10% FBS-supplemented RPMI medium containing 10 μg/mL peptide+20 U/mL IL-2±2.5 μM DMC. The medium was replaced with a 10% FBS-supplemented RPMI medium containing 10 μg/mL peptide+20 U/mL IL-2±2.5 μM DMC, followed by culture for another 4 days (culture for 14 days).
After the completion of culture, centrifugation was performed at 400 g for 5 minutes to remove the supernatant and leave the PBMC pellet; and each antibody (CD3, CD4, and CD8) was diluted 100-fold, and CMV Tetramer was diluted 10-fold in a HBSS+2% FBS+10 mM HEPES medium, and added at 30 μL/tube to a PBMC pellet to suspend the PBMCs, followed by incubation at 4° C. for 30 minutes. By adding the HBSS+2% FBS+10 mM HEPES medium at 200 μL/tube, centrifugation was performed at 400 g for 5 minutes. The supernatant was removed to leave the PBMC pellet.
The PBMCs left in the HBSS+2% FBS+10 mM HEPES medium were suspended, and the suspension was subjected to FACS analysis. […]

[5] = test system: granzyme B-expressing CD8+T cells; experiment: Granzyme B staining (FACS) of PBMCs; type: cell-based, human; conditions: DMC 2.5 μM + BiTE; PBMCs of four healthy people; p=0.01
Protocol: The medium collected in section 1(4) above was centrifuged at 400 g for 5 minutes, and the supernatant was removed to leave the PBMC pellet. Each antibody (CD3, CD4, CD8, and CD45RA) was diluted 100-fold with 2% FBS- and 10 mM HEPES-supplemented HBSS medium (“HBSS+2% FBS+10 mM HEPES” medium). Such antibody diluents were individually added at 30 μL/tube to the pellet in which the supernatant was removed, followed by incubation at 4° C. for 30 minutes. After an HBSS+2% FBS+10 mM HEPES medium was added at 200 μL/tube, and centrifugation was performed at 400 g for 5 minutes, the supernatant was removed to leave the pellet. After the remaining PBMCs were suspended by adding a fix buffer at 100 μL/tube, incubation was performed for 30 minutes at 4° C.
The tube obtained after the completion of incubation was centrifuged at 400 g for 5 minutes to remove the supernatant and leave the PBMC pellet. After a wash buffer was added at 200 μL/tube to suspend the pellet, centrifugation was performed at 400 g for 5 minutes to remove the supernatant and leave the PBMC pellet. An anti-Granzyme B antibody was diluted 100-fold in a wash buffer, and the remaining PBMCs were suspended in the antibody diluent (30 μL/tube), followed by incubation for 30 minutes at 4° C. […]

[6] = test system: CD8+T cells; experiment: CytoTell assay, proliferative capacity of CD8+T cells; type: cell-based, human; conditions: DMC 2.5 μM + BiTE; PBMCs of five healthy people; 96 hours; p=0.007
Protocol: PBMCs were collected from peripheral blood of healthy people according to the method described in section 1(1) above. A solution in which CytoTell red was mixed with the HBSS+2% FBS+10 mM HEPES medium was added to the collected PBMC pellet, followed by incubation at 37° C. for 30 minutes. After the completion of incubation, the supernatant was removed by centrifugation at 400 g for 5 minutes to leave the PBMC pellet. By adding a 10% FBS-supplemented RPMI medium, the remaining PBMCs were suspended to prepare a suspension of PBMCs having a cell count of 1×10^6/mL.
As in section 1(3) above, a U251 cell line, PBMCs, and BiTE, or a U251 cell line, PBMC, BiTE, and a test drug, were contacted and cultured at 37° C. for 96 hours.
After the completion of culture, the culture supernatant was collected, followed by washing in a 10% FBS-supplemented RPMI 1640 medium three times, and the media were also collected.
The collected medium was centrifuged at 400 g for 5 min, and the supernatant was removed to leave the PBMC pellet. Each antibody (CD3, CD4, CD8, and CD45RA) was diluted 100-fold with a HBSS+2% FBS+10 mM HEPES medium. The antibody diluents were individually added at 30 μL/tube to the pellet to suspend the remaining PBMCs, followed by incubation at 4° C. for 30 minutes. […]

[7] = test system: U251 cell line; experiment: Tumor-cytotoxic activity using peripheral blood mononuclear cells with EphA2-CD3 BiTE; conditions: test drug 2.5 μM + BiTE 100 ng/mL; PBMCs of healthy people + U251; 48 hours; n=3; DMC, MC, CTC p<0.01; TC, MINO p<0.05
Protocol: Thereafter, by measuring the degree of cytotoxicity to the tumor cells (tumor-cytotoxic activity) by the PBMCs, the anti-tumor activity of T cells in the PBMCs was evaluated.
(1) A U251 cell line was suspended in a RPMI1640 medium containing 10% FBS (a 10% FBS-supplemented RPMI1640 medium), and then detached with trypsin. The cell line was suspended in a 10% FBS-supplemented RPMI1640 medium such that the cell count was 1×10^5/mL, thereby preparing a cell suspension. The cell suspension was seeded in a 96-well plate at a rate of 100 μL/well, and incubated in a wet incubator at 37° C. for 18 hours in the presence of 5% CO2 gas. […]
(3) EphA 2-CD3 BiTE (registered trademark) containing an antigen-binding domain for EphA2 and an antigen-binding domain for CD3 in the molecule was prepared at 400 ng/mL in a 10% FBS-supplemented RPMI 1640 medium (“BiTE solution”). […] The amount of the 10% FBS-supplemented RPMI medium per well was determined so that the total final amount was 200 μL. […]
(5) The absorbance at 492 nm of each well of the 96-well microplate after the completion of incubation in step (4) was measured with a microplate reader. Subsequently, tumor-cytotoxic activity was calculated in accordance with the following equation.
Absorbance of a well consisting of U251 cell line and PBMCs=A […]

| SMILES | presence ratio of IFNγ-producing CD8+T cells compared to BiTE alone [1] | tumor volume on Day 13 ([2]; Example 9, DMC 30 mg/kg oral Day 7 to Day 12, anti-PD-L1 antibody or control IgG 200 μg/mouse ip Day 10, no CD8 depletion) | increase in tumor volume as compared to the aPD-L1+H2O group ([2]; IgG+DMC group, DMC 30 mg/kg oral) | anti-tumor activity of T cells in lung cancer tissue compared to BiTE alone [3] | presence ratio of CMV-specific cytotoxic T cells (CMV Tetramer+CD8+T cells), DMC+ as compared to DMC− [4] | presence ratio of granzyme B-expressing CD8+T cells as compared to BiTE alone [5] | proliferative capacity of CD8+T cells as compared to BiTE alone [6] | T-cell anti-tumor activity (tumor-cytotoxic activity) as compared to BiTE alone [7] |
| --- | --- | --- | --- | --- | --- | --- | --- | --- |
| CN(C)[C@@H]1C(O)=C(C(N)=O)C(=O)[C@@]2(O)C(O)=C3C(=O)c4c(O)ccc(Cl)c4[C@@H](O)[C@H]3C[C@@H]12 [DMC, demethyl chlortetracycline] | increased | about 100 mm^3 | more inhibited | enhanced | significantly high | high | high |  |
| CN(C)[C@@H]1C(=O)C(C(N)=O)=C(O)[C@@]2(O)C(=O)C3=C(O)c4c(O)cccc4[C@@](C)(O)[C@H]3C[C@@H]12 [TC, tetracycline] |  |  |  |  |  |  |  | enhanced |
